In patent publication US6737383B1, “Herbicidal oxadiazolidines” (priority 1999, dated 2004):

Experiments:
[1] = test system: bedstraw; test: Test B pre/postemergence bedstraw; format: in vivo, Galium aparine; details: Preemergence
Method in brief: (§1)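 Herbicidal effect was estimated by eye on a ten-point control scale after plants spent twelve to sixteen days in a greenhouse following soil or foliar treatment. Foliar sprays targeted plants at one to four leaves; all doses were formulated in a non-phytotoxic solvent with surfactant.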

[2] = test system: blackgrass; test: Test B pre/postemergence blackgrass; format: in vivo, Alopecurus myosuroides
Method in brief: as §1

[3] = test system: surinam grass; test: Test B pre/postemergence surinam grass; format: in vivo, Brachiaria decumbens
Method in brief: as §1

[4] = test system: cocklebur; test: Test B pre/postemergence cocklebur; format: in vivo, Xanthium strumarium
Method in brief: as §1

[5] = test system: corn; test: Test B pre/postemergence corn; format: in vivo, Zea mays
Method in brief: as §1

[6] = test system: crabgrass; test: Test B pre/postemergence crabgrass; format: in vivo, Digitaria sanguinalis
Method in brief: as §1

[7] = test system: giant foxtail; test: Test B pre/postemergence giant foxtail; format: in vivo, Setaria faberii
Method in brief: as §1

[8] = test system: morningglory; test: Test B pre/postemergence morningglory; format: in vivo, Ipomoea hederacea
Method in brief: as §1

[9] = test system: pigweed; test: Test B pre/postemergence pigweed; format: in vivo, Amaranthus retroflexus
Method in brief: as §1

[10] = test system: rape; test: Test B pre/postemergence rape; format: in vivo, Brassica napus
Method in brief: as §1

[11] = test system: soybean; test: Test B pre/postemergence soybean; format: in vivo, Glycine max
Method in brief: as §1

[12] = test system: sugar beet; test: Test B pre/postemergence sugar beet; format: in vivo, Beta vulgaris
Method in brief: as §1

[13] = test system: velvetleaf; test: Test B pre/postemergence velvetleaf; format: in vivo, Abutilon theophrasti
Method in brief: as §1

[14] = test system: wheat; test: Test B pre/postemergence wheat; format: in vivo, Triticum aestivum
Method in brief: as §1

[15] = test system: wild oat; test: Test B pre/postemergence wild oat; format: in vivo, Avena fatua
Method in brief: as §1

[16] = test system: purple nutsedge; test: Test B pre/postemergence purple nutsedge; format: in vivo, Cyperus rotundus
Method in brief: as §1

[17] = Postemergence, Rate 125 g/ha, scale 0 to 10, 0 is no effect, 10 is complete control
[18] = Postemergence, Rate 500 g/ha, scale 0 to 10, 0 is no effect, 10 is complete control
[19] = Preemergence, Rate 62 g/ha, scale 0 to 10 (0 no effect, 10 complete control)
[20] = Preemergence, Rate 125 g/ha, scale 0 to 10, 0 is no effect, 10 is complete control
[21] = Preemergence, Rate 500 g/ha, scale of 0 to 10 where 0 is no effect and 10 is complete control
[22] = Postemergence, Rate 62 g/ha, scale of 0 to 10, 0 is no effect, 10 is complete control
[23] = Rate 250 g/ha, Postemergence, scale of 0 to 10 where 0 is no effect and 10 is complete control

COCn1c(=O)on(C(=O)N(c2ccc(Cl)cc2)C(C)C)c1=O [Compound 533]
Bedstraw plant response rating ([1]; Rate 62 g/ha, scale 0 to 10 (0 no effect, 10 complete control)): 0
Bedstraw plant response rating ([1]; Rate 125 g/ha, scale 0 to 10, 0 is no effect, 10 is complete control): 0
Bedstraw plant response rating (0 to 10 scale) ([1]; Rate 250 g/ha): 0
Bedstraw plant response rating ([1]; Rate 500 g/ha, scale of 0 to 10 where 0 is no effect and 10 is complete control): 0
Blackgrass plant response rating [2, 17]: 2
Plant response rating, Blackgrass [2, 18]: 7
Blackgrass plant response rating [2, 19]: 4
Blackgrass plant response rating [2, 20]: 8
Blackgrass plant response rating (0 to 10 scale) ([2]; Preemergence, Rate 250 g/ha): 9
Blackgrass plant response rating [2, 21]: 9
B. signalgrass plant response rating [3, 22]: 0
B. signalgrass plant response rating [3, 17]: 0
Plant response rating, B. signalgrass [3, 18]: 4
B. signalgrass plant response rating [3, 19]: 2
B. signalgrass plant response rating [3, 20]: 3
B. signalgrass plant response rating (0 to 10 scale, 0 is no effect, 10 is complete control) ([3]; Preemergence, Rate 250 g/ha): 9
B. signalgrass plant response rating [3, 21]: 9
Cocklebur plant response rating [4, 22]: 2
Cocklebur plant response rating [4, 17]: 2
Plant response rating, Cocklebur [4, 18]: 4
Cocklebur plant response rating [4, 19]: 0
Cocklebur plant response rating [4, 20]: 0
Cocklebur plant response rating (0 to 10 scale) ([4]; Preemergence, Rate 250 g/ha): 0
Cocklebur plant response rating [4, 21]: 0
Plant response rating, Cocklebur [4, 23]: 2
Corn plant response rating [5, 22]: 0
Corn plant response rating [5, 17]: 0
Plant response rating, Corn [5, 18]: 0
Corn plant response rating [5, 19]: 0
Corn plant response rating [5, 20]: 0
Corn plant response rating (0 to 10 scale) ([5]; Preemergence, Rate 250 g/ha): 0
Corn plant response rating [5, 21]: 6
Plant response rating, Corn [5, 23]: 0
Crabgrass plant response rating [6, 22]: 3
Crabgrass plant response rating [6, 17]: 8
Plant response rating, Crabgrass [6, 18]: 9
Crabgrass plant response rating [6, 19]: 9
Crabgrass plant response rating [6, 20]: 10
Crabgrass plant response rating (0 to 10 scale) ([6]; Preemergence, Rate 250 g/ha): 10
Crabgrass plant response rating [6, 21]: 10
Plant response rating, Crabgrass [6, 23]: 9
Giant foxtail plant response rating [7, 22]: 8
Giant foxtail plant response rating [7, 17]: 8
Plant response rating, Giant foxtail [7, 18]: 9
Giant foxtail plant response rating [7, 19]: 9
Giant foxtail plant response rating [7, 20]: 10
Giant foxtail plant response rating (0 to 10 scale) ([7]; Preemergence, Rate 250 g/ha): 10
Giant foxtail plant response rating [7, 21]: 10
Plant response rating, Giant foxtail [7, 23]: 9
Morningglory plant response rating [8, 22]: 4
Morningglory plant response rating [8, 17]: 4
Plant response rating, Morningglory [8, 18]: 7
Morningglory plant response rating [8, 19]: 0
Morningglory plant response rating [8, 20]: 0
Morningglory plant response rating (0 to 10 scale) ([8]; Preemergence, Rate 250 g/ha): 0
Morningglory plant response rating [8, 21]: 0
Plant response rating, Morningglory [8, 23]: 7
Redroot pigweed plant response rating [9, 22]: 9
Redroot pigweed plant response rating [9, 17]: 9
Plant response rating, Redroot pigweed [9, 18]: 9
Redroot pigweed plant response rating [9, 19]: 8
Redroot pigweed plant response rating [9, 20]: 8
Redroot pigweed plant response rating (0 to 10 scale) ([9]; Preemergence, Rate 250 g/ha): 8
Redroot pigweed plant response rating [9, 21]: 8
Rape plant response rating [10, 22]: 0
Rape plant response rating [10, 17]: 0
Plant response rating, Rape [10, 18]: 4
Rape plant response rating [10, 19]: 0
Rape plant response rating [10, 20]: 0
Rape plant response rating (0 to 10 scale) ([10]; Preemergence, Rate 250 g/ha): 7
Rape plant response rating [10, 21]: 7
Soybean plant response rating [11, 22]: 4
Soybean plant response rating [11, 17]: 4
Plant response rating, Soybean [11, 18]: 4
Soybean plant response rating [11, 19]: 0
Soybean plant response rating [11, 20]: 0
Soybean plant response rating (0 to 10 scale) ([11]; Preemergence, Rate 250 g/ha): 0
Soybean plant response rating [11, 21]: 0
Plant response rating, Soybean [11, 23]: 4
Sugarbeets plant response rating [12, 22]: 0
Sugarbeets plant response rating [12, 17]: 0
Plant response rating, Sugarbeets [12, 18]: 4
Sugarbeets plant response rating [12, 19]: 3
Sugarbeets plant response rating [12, 20]: 5
Sugarbeets plant response rating (0 to 10 scale) ([12]; Preemergence, Rate 250 g/ha): 7
Sugarbeets plant response rating [12, 21]: 7
Velvetleaf plant response rating [13, 22]: 0
Velvetleaf plant response rating [13, 17]: 4
Plant response rating, Velvetleaf [13, 18]: 8
Velvetleaf plant response rating [13, 19]: 0
Velvetleaf plant response rating [13, 20]: 0
Velvetleaf plant response rating (0 to 10 scale) ([13]; Preemergence, Rate 250 g/ha): 5
Velvetleaf plant response rating [13, 21]: 5
Plant response rating, Velvetleaf [13, 23]: 4
Wheat plant response rating [14, 22]: 0
Wheat plant response rating [14, 17]: 0
Plant response rating, Wheat [14, 18]: 2
Wheat plant response rating [14, 19]: 0
Wheat plant response rating [14, 20]: 0
Wheat plant response rating (0 to 10 scale) ([14]; Preemergence, Rate 250 g/ha): 0
Wheat plant response rating [14, 21]: 0
Wild oats plant response rating [15, 22]: 0
Wild oats plant response rating [15, 17]: 0
Plant response rating, Wild oats [15, 18]: 0
Wild oats plant response rating [15, 19]: 0
Wild oats plant response rating [15, 20]: 0
Wild oats plant response rating (0 to 10 scale) ([15]; Preemergence, Rate 250 g/ha): 9
Wild oats plant response rating [15, 21]: 9
Nutsedge plant response rating [16, 22]: 0
Nutsedge plant response rating [16, 17]: 0
Plant response rating, Nutsedge [16, 18]: 0
Nutsedge plant response rating [16, 19]: 0
Nutsedge plant response rating [16, 20]: 0
Nutsedge plant response rating [16, 21]: 0
Plant response rating, Nutsedge [16, 23]: 0
